# Measurements published in paper PMC10797628.
# Read-outs that look alike come from different tables or passages of the source.
# How the values were obtained:
# [1] = target: T1, human 5-HT1A receptor (Homo sapiens, UniProt P08908); experiment: Radioligand binding (saturation and competition), WT 5-HT1A
# T1 construct: host or cells: HEK293T
# T1 sequence (P08908 1-422): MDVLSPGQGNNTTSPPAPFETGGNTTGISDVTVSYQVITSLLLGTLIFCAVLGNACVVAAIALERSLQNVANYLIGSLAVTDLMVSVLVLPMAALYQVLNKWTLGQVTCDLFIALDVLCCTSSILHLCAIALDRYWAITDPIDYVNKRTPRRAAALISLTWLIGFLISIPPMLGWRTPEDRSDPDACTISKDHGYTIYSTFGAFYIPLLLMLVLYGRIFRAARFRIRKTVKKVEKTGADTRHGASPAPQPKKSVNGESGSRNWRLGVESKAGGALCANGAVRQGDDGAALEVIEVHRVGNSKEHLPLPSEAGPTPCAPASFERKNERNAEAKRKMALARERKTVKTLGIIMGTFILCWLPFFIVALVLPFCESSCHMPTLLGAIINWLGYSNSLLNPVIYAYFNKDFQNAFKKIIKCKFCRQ
# [2] = target: T2, human 5-HT1B receptor (Homo sapiens, UniProt P28222); experiment: Radioligand binding (saturation and competition), WT 5-HT1B
# T2 construct: host or cells: HEK293T
# [3] = target: T3, human 5-HT1D receptor (Homo sapiens, UniProt P28221); experiment: Radioligand binding (saturation and competition), WT 5-HT1D
# T3 construct: host or cells: HEK293T
# [4] = target: T4, human 5-HT1F receptor (Homo sapiens, UniProt P30939); experiment: Radioligand binding (saturation and competition), WT 5-HT1F
# T4 construct: host or cells: HEK293T
# T4 sequence (P30939 1-366): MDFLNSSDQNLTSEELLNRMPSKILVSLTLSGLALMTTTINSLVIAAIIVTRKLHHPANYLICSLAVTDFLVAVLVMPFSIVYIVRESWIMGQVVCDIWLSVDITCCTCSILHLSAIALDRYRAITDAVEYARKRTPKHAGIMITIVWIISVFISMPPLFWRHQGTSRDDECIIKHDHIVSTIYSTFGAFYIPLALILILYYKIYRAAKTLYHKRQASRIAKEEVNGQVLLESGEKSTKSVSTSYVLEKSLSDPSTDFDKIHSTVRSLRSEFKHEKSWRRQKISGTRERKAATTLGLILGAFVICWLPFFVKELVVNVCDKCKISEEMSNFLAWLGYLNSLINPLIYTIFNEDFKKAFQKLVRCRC
# [5] = target: T1, human 5-HT1A receptor; experiment: cAMP accumulation (LANCE Ultra TR-FRET) in HEK293T cells, WT 5-HT1A; assay type: cell-based; settings: for Emax: HEK-293T; for EC50: cAMP accumulation, HEKt cells, mean ± SD
# Description: (§1) Briefly, cells transfected with the desired receptor construct and compounds were incubated in the dark for 90 min at 37 °C. After incubation, cAMP detection reagents were added, and TR-FRET was used to quantify the cAMP produced.
# (§2) The functional activity of compounds was determined by stimulating cells expressing the desired receptor with FSK and test compound in parallel with 12 known concentrations of cAMP. The known concentrations of cAMP were used to create a standard curve for each experiment that was used to interpolate the unknown values of cAMP in wells with test compounds. […] The EC50 and EMAX values were determined using the “dose response – log[agonist] vs response (three parameter)” nonlinear regression model in Prism and transformed to pEC50 values, reported as mean ± SD.
# (§3) Summary of functional assay conditions at various 5-HT1 receptor point mutation constructs.
# [6] = target: T2, human 5-HT1B receptor; experiment: cAMP accumulation (LANCE Ultra TR-FRET) in HEK293T cells, WT 5-HT1B; assay type: cell-based; settings: for Emax: HEK-293T; for EC50: cAMP accumulation, HEKt cells, mean ± SD
# Description: as §1, §2, §3
# [7] = target: T3, human 5-HT1D receptor; experiment: cAMP accumulation (LANCE Ultra TR-FRET) in HEK293T cells, WT 5-HT1D; assay type: cell-based; settings: for Emax: HEK-293T; for EC50: cAMP accumulation, HEKt cells, mean ± SD
# Description: as §1, §2, §3
# [8] = Affinity (pKi ± SD) 5-HT1A, WT receptor, [^3H]5-CT competition, mean ± SD
# [9] = Affinity (pKi ± SD) 5-HT1B, WT receptor, [^3H]5-CT competition, mean ± SD
# [10] = Affinity (pKi ± SD) 5-HT1D, WT receptor, [^3H]5-CT competition, mean ± SD
# [11] = read-out: Affinity (pKi ± SD) 5-HT1A (converted)
# [12] = read-out: Affinity (pKi ± SD) 5-HT1D (converted)
# [13] = WT receptor, [^3H]5-HT competition, mean ± SD, read-out: Affinity (pKi ± SD) 5-HT1F (converted)
# [14] = read-out: Affinity (pKi ± SD) 5-HT1B (converted)
# [15] = WT receptor, read-out: 5-HT1A pEC50 (converted)
# [16] = WT receptor, read-out: 5-HT1B pEC50 (converted)
# [17] = WT receptor, read-out: 5-HT1D pEC50 (converted)
# [18] = WT receptor, normalized to basal (0%) and 10 μM 5-CT (100%)
# [19] = read-out: 5-HT1B EMAX (%), WT receptor, normalized to basal (0%) and 10 μM 5-CT (100%)
# [20] = read-out: 5-HT1D EMAX (%), WT receptor, normalized to basal (0%) and 10 μM 5-CT (100%)
# [21] = read-out: 5-HT1A EMAX (%), WT receptor, normalized to basal (0%) and 10 μM 5-CT (100%)
# T3 sequence (P28221 whole entry): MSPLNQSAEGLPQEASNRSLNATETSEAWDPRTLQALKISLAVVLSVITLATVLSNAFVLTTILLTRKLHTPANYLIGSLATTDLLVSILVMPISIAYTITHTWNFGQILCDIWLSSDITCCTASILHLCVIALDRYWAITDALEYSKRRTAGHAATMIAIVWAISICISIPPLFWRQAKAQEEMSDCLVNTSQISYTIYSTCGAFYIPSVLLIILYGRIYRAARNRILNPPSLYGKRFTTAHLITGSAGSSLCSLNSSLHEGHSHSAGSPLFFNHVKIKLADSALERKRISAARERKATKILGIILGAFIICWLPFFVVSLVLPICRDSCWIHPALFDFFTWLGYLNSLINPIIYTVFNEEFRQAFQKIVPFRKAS
# T2 sequence (P28222 whole entry): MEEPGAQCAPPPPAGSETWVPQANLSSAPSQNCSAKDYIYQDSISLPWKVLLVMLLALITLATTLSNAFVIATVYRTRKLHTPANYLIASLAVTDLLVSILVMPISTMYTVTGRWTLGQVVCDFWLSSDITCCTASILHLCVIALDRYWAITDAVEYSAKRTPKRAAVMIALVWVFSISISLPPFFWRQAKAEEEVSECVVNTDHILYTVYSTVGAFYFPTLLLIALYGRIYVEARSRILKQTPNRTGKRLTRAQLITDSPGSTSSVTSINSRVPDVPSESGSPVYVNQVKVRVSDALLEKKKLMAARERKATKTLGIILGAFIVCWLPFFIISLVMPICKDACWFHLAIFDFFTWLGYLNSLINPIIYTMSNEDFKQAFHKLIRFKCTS
compound,measurement,setting,value
CN(C)[C@@H]1CCc2c(cccc2-c2cccc3ccccc23)C1 [(R)-NAP],Ki,[1]; [8],263 nM
same,Ki,[2]; [9],155 nM
same,Ki,[3]; [10],107 nM
same,Ki,[4],> 10000 nM
"CN1CCC(c2c[nH]c3ccc(NC(=O)c4ccc(F)cc4)cc23)CC1 [LY334370, reference compound]",Ki,[1]; [11],501 nM
same,Ki,[3]; [12],2040 nM
same,Ki,[4]; [13],8.32 nM
CN(C)[C@@H]1CCc2c(cccc2-c2cccn2C)C1 [(R)-NMP],Affinity (pKi ± SD) 5-HT1A,"[1]; WT receptor, [^3H]5-CT competition, mean ± SD",6.26 ± 0.03
same,Ki,[2]; [9],339 nM
same,Ki,[3]; [10],316 nM
same,Ki,[4],> 10000 nM
CN(C)[C@@H]1CCc2c(cccc2-c2ccccc2Cl)C1 [(R)-CPT],Ki,[1]; [8],2140 nM
same,Ki,[2]; [9],72.4 nM
same,Ki,[3]; [10],417 nM
same,Ki,[4],> 10000 nM
CCCN(CCC)[C@@H]1CCc2c(cccc2-c2ccccc2F)C1 [(R)-DFPT],Ki,[1]; [8],117 nM
same,Ki,[2]; [9],64.6 nM
same,Ki,[3]; [10],107 nM
same,Ki,[4],> 10000 nM
"CN(C)[C@H]1CCc2c(cccc2-c2cccc3c2oc2ccccc23)C1 [DBZ, (S)-5-(Dibenzo[b,d]furan-4-yl)-N,N-dimethyl-1,2,3,4-tetrahydronaphthalen-2-amine]",Ki,[1]; [11],309 nM
same,Ki,[2]; [14],69.2 nM
same,Ki,[3]; [12],4.79 nM
same,Emax,[5]; read-out: 5-HT1A EMAX (%),93 ± 4%
same,EC50,[5]; [15],813 nM
same,Emax,[6]; read-out: 5-HT1B EMAX (%),93 ± 2%
same,EC50,[6]; [16],64.6 nM
same,Emax,[7]; read-out: 5-HT1D EMAX (%),99 ± 2%
same,EC50,[7]; [17],4.37 nM
"CCCN(CCC)[C@H]1CCc2cccc(O)c2C1 [(S)-8-OH-DPAT, 8-hydroxy-N,N-dipropyl-1,2,3,4-tetrahydronaphthalen-2-amine, reference compound]",Ki,[4],> 10000 nM
same,5-HT1A EMAX (%),[5]; [18],70 ± 3%
same,Emax,[6]; [19],85 ± 3%
same,Emax,[7]; [20],94 ± 2%
"CCCN(CCC)[C@@H]1CCc2cccc(O)c2C1 [(R)-8-OH-DPAT, 8-hydroxy-N,N-dipropyl-1,2,3,4-tetrahydronaphthalen-2-amine, reference compound]",5-HT1A EMAX (%),[5]; [18],95 ± 4%
same,5-HT1B EMAX (%),[6]; [18],87 ± 4%
same,5-HT1D EMAX (%),[7]; [18],96 ± 2%
"Fc1ccccc1-c1cccc2c1CC[C@H](N1CCNCC1)C2 [FPIP, (S)-1-(5-(2-Fluorophenyl)-1,2,3,4-tetrahydronaphthalen-2-yl)piperazine]",Ki,[1]; [11],0.977 nM
same,Ki,[2]; [14],107 nM
same,Ki,[3]; [12],87.1 nM
same,Emax,[5]; read-out: 5-HT1A EMAX (%),95 ± 2%
same,EC50,[5]; [15],1.2 nM
same,selectivity over 5-HT1B and 5-HT1D receptors,[5]; full efficacy 5-HT1A agonist,100 fold
same,Emax,[6]; read-out: 5-HT1B EMAX (%),99 ± 3%
same,EC50,[6]; [16],126 nM
same,Emax,[7]; read-out: 5-HT1D EMAX (%),98 ± 2%
same,EC50,[7]; [17],148 nM
"CCCN(CCC)C1CCc2cccc(O)c2C1 (stereo not shown) [8-OH-DPAT, 8-hydroxy-N,N-dipropyl-1,2,3,4-tetrahydronaphthalen-2-amine, reference compound]",higher affinity at the 5-HT1A receptor over 5-HT1B and 5-HT1D receptors,[1]; affinity ratio,10–20 fold
CN(C)[C@@H]1CCc2c(cccc2-c2ccccc2F)C1 [(R)-FPT],Ki,[2]; [9],240 nM
same,Ki,[3]; [10],912 nM
same,Ki,[4],> 10000 nM
Fc1ccccc1-c1cccc2c1CC[C@@H](N1CCCC1)C2 [(R)-PFPT],Ki,[1]; [11],288 nM
same,Ki,[2]; [14],457 nM
same,Ki,[3]; [12],417 nM
same,Ki,[4]; [13],> 10000 nM
"CN(C)[C@H]1CCc2c(cccc2-c2c(F)cccc2F)C1 [Di-FPT, (S)-5-(2,6-Difluorophenyl)-N,N-dimethyl-1,2,3,4-tetrahydronaphthalen-2-amine]",Ki,[1]; [8],1.7 nM
same,Ki,[2]; [9],1.62 nM
same,Ki,[3]; [10],1.41 nM
same,EC50,"[5]; 5-HT1A pEC50, WT receptor",1.74 nM
same,Emax,[5]; [21],98 ± 2%
same,EC50,"[6]; 5-HT1B pEC50, WT receptor",2.09 nM
same,Emax,[6]; [19],100 ± 1%
same,EC50,"[7]; 5-HT1D pEC50, WT receptor",1.66 nM
same,Emax,[7]; [20],100 ± 1%
CN(C)[C@@H]1CCc2c(cccc2-c2ccco2)C1 [(R)-FAT],Ki,[1]; [8],537 nM
same,Ki,[2]; [9],550 nM
same,Ki,[3]; [10],214 nM
same,Ki,[4],> 10000 nM
CN(C)[C@@H]1CCc2c(cccc2-c2ccccc2)C1 [(R)-5-PAT],Ki,[1]; [8],1050 nM
same,Ki,[2]; [9],1320 nM
same,Ki,[3]; [10],282 nM
same,Ki,[4],> 10000 nM
CN(C)[C@@H]1CCc2c(cccc2-c2cccs2)C1 [(R)-TAT],Ki,[1]; [8],1510 nM
same,Ki,[2]; [9],3160 nM
same,Ki,[3]; [10],813 nM
same,Ki,[4],> 10000 nM
CCCN(CCC)[C@@H]1CCc2c(cccc2-c2ccccc2Cl)C1 [(R)-DCPT],Ki,[1]; [8],117 nM
same,Ki,[2]; [9],55 nM
same,Ki,[3]; [10],117 nM
same,Ki,[4],> 10000 nM
"O=C1CCc2ccc(OCCCCN3CCN(c4cccc(Cl)c4Cl)CC3)cc2N1 [Aripiprazole, aripiprazole, reference compound]",Ki,[4]; [13],7240 nM
same,Emax,[5]; [21],96 ± 2%
same,Emax,[6]; [19],99 ± 3%
same,Emax,[7]; [20],96 ± 1%
"Cc1ccc(CNCC2(F)CCN(C(=O)c3ccc(F)c(Cl)c3)CC2)nc1 [NLX-112, reference compound]",Ki,[2]; [9],> 10000 nM
same,Ki,[3]; [10],> 10000 nM
same,Ki,[4],> 10000 nM
same,Emax,[5]; read-out: 5-HT1A EMAX (%),100 ± 3%
same,EC50,"[6]; read-out: 5-HT1B pEC50 (converted), WT receptor",> 10000 nM
same,EC50,"[7]; read-out: 5-HT1D pEC50 (converted), WT receptor",> 10000 nM
"O=C1CC2(CCCC2)CC(=O)N1CCCCN1CCN(c2ncccn2)CC1 [Buspirone, buspirone, reference compound]",Ki,[3]; [12],617 nM
same,Ki,[4]; [13],> 10000 nM
same,Emax,[5]; read-out: 5-HT1A EMAX (%),75 ± 1%
same,Emax,[6]; read-out: 5-HT1B EMAX (%),45 ± 3%
same,Emax,[7]; read-out: 5-HT1D EMAX (%),50 ± 3%
same,EC50,[7]; [17],> 10000 nM
